Legend:
Assay type in all cases: cell-based, human
[1] = test system: MCF7 cells and Oct3/4-GFP+MCF7 cell population; assay: Hoechst 33342 side population (SP) exclusion; conditions: exposure to 20 μM Reserpine; SP fractions of MCF7 and Oct3/4-GFP+MCF7 cells
Procedure: In other studies, Oct3/4-GFP+MCF7 cells were examined by qRT-PCR for expression of the breast cancer CSC markers CD133 and Oct3/4. After normalizing to GAPDH, the ratios of these transcripts in Oct3/4-GFP+MCF7 cells and non-CSC-MCF7 cells were 6.3 for CD 133 and 2.5 for Oct3/4. […] The SP is due to CSCs ability to exclude the dye Hoechst 33342 and reflects high expression of ABCG2 transporters such as MDR1 and BRCP. […] These fractions could also be reduced by >70% following exposure to 20 μM Reserpine, which inhibits ABC transporters. Moreover, the overall mean fluorescence intensity of the entire Oct3/4-GFP+MCF population was two-fold lower than that of the MCF7population. Thus, based on independent qRT-PCR assessments of CSC gene expression profiles and on uptake/exclusion of Hoechst 33342, one can conclude that the Oct3/4-GFP+MCF7 population consists of highly enriched and stable cells that are unable to differentiate into TACs.

[2] = test system: Oct3/4-GFP+MCF7 cells versus unfractionated MCF7 cells; assay: Differential chemotherapeutic responses, viable adherent cell counts by trypan blue exclusion; conditions: FIG. 6; viable adherent cells over time
Procedure: FIG. 6. Differential chemotherapeutic responses of MCF7 and Oct3/4-GFP+MCF7 cells. 10^5 unfractionated, MCF7 cells (dotted line) or Oct3/4GFP+MCF7 cells (broken line) were seeded into 6 well plates and allowed to achieve ca. 30-50% confluence. The indicated concentrations of adriamycin, etoposide, 5-fluorouracil, cis-platinum, methotrexate, and taxol were then added (day 0). The total number of viable adherent cells was then determined at the indicated times by trypan blue exclusion. […] Note that in most cases Oct4/4-GFP+MCF7 actually grew in the presence of all agents. These experiments were repeated at least two additional times with similar outcomes.
Differential chemosensitivities of Oct3/4-GFP+MCF7 cells. It is believed that CSCs are more resistant to chemotherapeutic agents than TACs, thus at least partly accounting for the propensity of many tumors to relapse after an initial response. To test this idea, MCF7 cells and Oct3/4-GFP+MCF7 CSCs were exposed to six different chemotherapeutic agents commonly employed to treat breast cancer.

Oct3/4-GFP+ MCF7 cells = assay: Screen for selective inhibition of Oct3/4-GFP+MCF7 cells (GFP level / cell viability, 384 well plates); conditions: initial screen; 3 day exposure, 5 μM, triplicate samples, relative changes in GFP levels
Procedure: MCF7 cells were used as the target population. Control cells consisted of Oct3/4-GFP-cells that were infected with a GFP-expressing lentivirus as a way of controlling for GFP expression. Initial screenings were performed in 384 well plates on triplicate samples. A fluorescent plate reader was used to quantify relative changes in GFP levels after a 3 day exposure to a 5 μM concentrations of each compound. […] These experiments were performed in 12 well plates in which 2000 cells/well were initially seeded and allowed to attach for one day. The following day (day 0), the medium was replaced with fresh medium containing the indicated concentrations of each compound. Cell counts were then performed manually on triplicate wells. Bars represent standard errors.
The cell viability assay was performed as follows:
Trypsinize cell and resuspend in MCF7 culture medium at a density of 4×10^4/ml Culture medium: alpha MEM, 10% FBS, 2 mM Glutamine, 1 mM Sodium Pyruvate, 1 mM non-essential amino acids, 100 U/ml Penicillin/Streptomycin
(1) dilute compounds to 30 μM using alpha MEM
(2) add 5 μl compounds to each well (final concentration 5 μM)
(3) add 25 μl cell suspension to each well (1000 cells/well)
(4) incubate cells with compounds for 72 hours at 37° C., 5% CO2
3. […] The plates were then read on SpectraMax M5 Microplate Reader using the wavelength of excitation 560 nm/emission 590 nm.

SMILES | selectivity for Oct3/4-GFP+MCF7 cells over control GFP-lentivirus cells (Oct3/4-GFP+ MCF7 cells) | other results
COC(=O)[C@H]1[C@H]2C[C@@H]3c4[nH]c5cc(OC)ccc5c4CCN3C[C@H]2C[C@@H](OC(=O)c2cc(OC)c(OC)c(OC)c2)[C@@H]1OC [Reserpine] | – | reduction of side population (SP) fractions [1]: > 70%
CC(=O)O[C@H]1C(=O)[C@@]2(C)[C@H]([C@H](OC(=O)c3ccccc3)[C@]3(O)C[C@H](OC(=O)[C@H](O)[C@@H](NC(=O)c4ccccc4)c4ccccc4)C(C)=C1C3(C)C)[C@]1(OC(C)=O)CO[C@@H]1C[C@@H]2O [taxol] | – | sensitivity/resistance of Oct3/4-GFP+MCF7 cells relative to MCF7 cells [2]: significantly more sensitive
CC(=O)c1c(O)c(C)c(O)c(Cc2c(O)c3c(c(C(=O)/C=C/c4ccccc4)c2O)OC(C)(C)C=C3)c1O [Rottlerin, 5,7-dihydroxy-2,2-dimethyl-6-(2,4,6-trihydroxy-3-methyl-5-acetylbenzyl)-8-cinnamoyl-1,2-chromene] | potentially selective agents | –
Cl.NC[C@@H]1O[C@H](C23CC4CC(CC(C4)C2)C3)Cc2c1ccc(O)c2O [A77636] | potentially selective agents | –

— patent publication US20100298352A1, “SMALL MOLECULE INHIBITORS OF CANCER STEM CELLS” (University of Pittsburgh - Of the Commonwealth System of …, priority 2009, published 2010)
